# Assay results: patent US20220193095A9, “PHARMACEUTICAL COMPOSITIONS” (Shenzhen Pharmacin Co., Ltd., priority 2019, published 2022)
# Columns and labels:
# [1] = Solubility of abiraterone acetate in lipids (glycerides); conditions: 25° C.
# [2] = Solubility of abiraterone acetate in fatty acids; conditions: 25° C.
# [3] = Solubility of abiraterone acetate in other media
# [4] = Solubility of abiraterone acetate in co-solvents
# [5] = Solubility of abiraterone acetate in surfactants
# [6] = cited from earlier work
# [7] = cited from earlier work; remark: listed apart in the source
# [8] = Solubility of abiraterone acetate in aqueous media
structure (smiles),measurement,setting,value
CC(=O)O[C@H]1CC[C@@]2(C)C(=CC[C@@H]3[C@@H]2CC[C@]2(C)C(c4cccnc4)=CC[C@@H]32)C1 [Abiraterone acetate],Solubility,[1]; Capryl monoglyceride,139.8 mg/mL
same,Solubility,[1]; Castor oil,59.6 mg/mL
same,Solubility,[1]; Coconut oil,30.6 mg/mL
same,Solubility,[1]; Corn oil,31.4 mg/mL
same,Solubility,[1]; Glycerol mono/di-caprylocaprate,147.0 mg/mL
same,Solubility,[1]; Glyceryl monooleate,37.1 mg/mL
same,Solubility,[1]; Isopropyl myristate,41.0 mg/mL
same,Solubility,[1]; Olive oil,27.3 mg/mL
same,Solubility,[1]; Polyglycerol fatty acid ester,10.0 mg/mL
same,Solubility,[1]; Propylene Glycol Monocaprylate,160.0 mg/mL
same,Solubility,[1]; Soybean oil,28.1 mg/mL
same,Solubility,[2]; Acetic acid,2386.1 mg/mL
same,Solubility,[2]; Butyric acid,1399.3 mg/mL
same,Solubility,[2]; Heptanoic acid,1325.9 mg/mL
same,Solubility,[2]; Linoleic acid,182.9 mg/mL
same,Solubility,[2]; Nonanoic acid,1084.1 mg/mL
same,Solubility,[2]; Oleic acid,239.0 mg/mL
same,Solubility,[2]; Propionic acid,2209.5 mg/mL
same,Solubility,[2]; Valeric acid,1104.8 mg/mL
same,Solubility,[2]; n-caproic acid,1572.6 mg/mL
same,Solubility,[2]; n-caprylic acid,1214.7 mg/mL
same,Solubility,"[3]; 1-octanol, 25° C.",114.0 mg/mL
same,Solubility,"[3]; Azone (Laurocapram), 25° C.",66.0 mg/mL
same,Solubility,"[3]; Capryl monoglyceride, 25° C. (Table 11)",139.8 mg/mL
same,Solubility,"[3]; Glycerol mono/di-caprylocaprate, 25° C. (Table 11)",147.0 mg/mL
same,Solubility,"[3]; Glyceryl monooleate, 25° C. (Table 11)",37.1 mg/mL
same,Solubility,"[3]; Isopropyl myristate, 25° C. (Table 11)",41.0 mg/mL
same,Solubility,"[3]; Polyglycerol fatty acid ester, 25° C. (Table 11)",10.0 mg/mL
same,Solubility,"[3]; Propylene Glycol Monocaprylate, 25° C. (Table 11)",160.0 mg/mL
same,Solubility,"[4]; Ethanol, 25° C.",61.1 mg/mL
same,Solubility,"[4]; Glycerol, 25° C.",5.0 mg/mL
same,Solubility,"[4]; PEG400, 25° C.",16.5 mg/mL
same,Solubility,"[4]; Propylene glycol, 25° C.",5.0 mg/mL
same,Solubility,"[4]; Transcutol, 25° C.",99.5 mg/mL
same,Solubility,"[5]; Labrasol, 25° C.",35.4 mg/mL
same,Solubility,"[5]; Polyethylene Glycol Oleate, 25° C.",52.7 mg/mL
same,Solubility,"[5]; Polyoxyethylene 8 stearate, 25° C.",18.1 mg/mL
same,Solubility,"[5]; Polyoxyethylene hydrogenated castor oil, 25° C.",10.1 mg/mL
same,Solubility,"[5]; Tween 80, 25° C.",7.5 mg/mL
same,Log P,[6],5.12
same,solubility in water,[7],practically insoluble in water
same,Solubility,"[8]; FDA Dissolution medium: 0.25% SLS in 56.5 mM phosphate buffer, pH 4.5, 25° C.",0.7 mg/mL
same,Solubility,"[8]; pH 3.0 buffer, 25° C.",<0.001 mg/mL
same,Solubility,"[8]; pH 4.0 buffer, 25° C.",<0.001 mg/mL
same,Solubility,"[8]; pH 5.0 buffer, 25° C.",<0.001 mg/mL
same,Solubility,"[8]; pH 6.0 buffer, 25° C.",<0.001 mg/mL
same,Solubility,"[8]; pH 7.4 buffer, 25° C.",<0.001 mg/mL
